Experimental data reported in patent US10611779B2, “Fused bicyclic heterocycle derivatives as pesticides” (Bayer CropScience Aktiengesellschaft, priority 2016, dated 2020).

Key:
[1] = log P (neutral) by HPLC on reversed-phase column (EEC Directive 79/831 Annex V.A8); type: physicochemical; conditions: reversed-phase C18 HPLC column, reversed-phase C 18, 55° C., neutral range pH 7.8
Experimental: The log P values are measured according to EEC Directive 79/831 Annex V.A8 by HPLC (high-performance liquid chromatography) on a reversed-phase column (C 18). Temperature: 55° C. The LC-MS determination in the neutral range is effected at pH 7.8 with 0.001 molar aqueous ammonium hydrogencarbonate solution and acetonitrile as eluents; linear gradient from 10% acetonitrile to 95% acetonitrile. Called log P (neutral) in the table. Calibration is effected using unbranched alkan-2-ones (having 3 to 16 carbon atoms) with known log P values (log P values determined on the basis of the retention times by linear interpolation between two successive alkanones).

Myzus persicae [2] = assay: Myzus persicae - oral test; type: in vivo; conditions: microtitre plate, after 5 days
Experimental: Myzus persicae—Oral Test [table] To produce a suitable active ingredient formulation, 1 part by weight of active ingredient is dissolved with the stated parts by weight of solvent and made up to the desired concentration with water. 50 μl of the active ingredient preparation are transferred into microtitre plates and made up to a final volume of 200 μl with 150 μl of IPL41 insect medium (33%+15% sugar). Subsequently, the plates are sealed with parafilm, which a mixed population of green peach aphids (Myzus persicae) within a second microtitre plate is able to puncture and imbibe the solution. After 5 days, the efficacy in % is determined. 100% means that all the aphids have been killed; 0% means that no aphids have been killed.

Ctenocephalides felis [3] = assay: Ctenocephalides felis - in vitro contact tests with adult cat fleas; type: in vivo; conditions: application rate 5 μg/cm^2 (=500 g/ha), coated glass tube, after 48 h
Experimental: Ctenocephalides felis—In Vitro Contact Tests with Adult Cat Fleas For the coating of the test tubes, 9 mg of active ingredient are first dissolved in 1 ml of acetone p.a. and then diluted to the desired concentration with acetone p.a. 250 μl of the solution are distributed homogeneously on the inner walls and the base of a 25 ml glass tube by turning and rocking on an orbital shaker (rocking rotation at 30 rpm for 2 h). With 900 ppm of active ingredient solution and internal surface area 44.7 cm^2, given homogeneous distribution, an area-based dose of 5 μg/cm^2 is achieved. After the solvent has evaporated off, the tubes are populated with 5-10 adult cat fleas (Ctenocephalides felis), sealed with a perforated plastic lid and incubated in a horizontal position at room temperature and ambient humidity. After 48 h, efficacy is determined. To this end, the tubes are stood upright and the fleas are knocked to the base of the tube. Fleas which remain motionless at the base or move in an uncoordinated manner are considered to be dead or moribund. […] 100% efficacy means that all the fleas were dead or moribund. 0% efficacy means that no fleas were harmed.

Lucilia cuprina = Lucilia cuprina test; type: in vivo; conditions: application rate 100 ppm; minced horsemeat; after 2 days
Experimental: Lucilia cuprina Test Solvent: dimethyl sulfoxide To produce a suitable active ingredient formulation, 10 mg of active ingredient are mixed with 0.5 ml of dimethyl sulfoxide, and the concentrate is diluted with water to the desired concentration. About 20 L1 larvae of the Australian sheep blowfly (Lucilia cuprina) are transferred into a test vessel containing minced horsemeat and the active ingredient formulation of the desired concentration. After 2 days, the kill in % is determined. 100% means that all the larvae have been killed; 0% means that no larvae have been killed.

Myzus persicae [4] = assay: Myzus persicae - spray test; type: in vivo; conditions: application rate 100 g/ha; Chinese cabbage leaf discs, all stages; after 5 days
Experimental: Myzus persicae—Spray Test [table] To produce a suitable active ingredient formulation, 1 part by weight of active ingredient is dissolved with the specified parts by weight of solvent and made up to the desired concentration with water containing an emulsifier concentration of 1000 ppm. To produce further test concentrations, the formulation is diluted with emulsifier-containing water. Discs of Chinese cabbage leaves (Brassica pekinensis) infested by all stages of the green peach aphid (Myzus persicae) are sprayed with an active ingredient formulation of the desired concentration. After 5 days, the efficacy in % is determined. 100% means that all the aphids have been killed; 0% means that no aphids have been killed.

Ctenocephalides felis [5] = assay: Ctenocephalides felis - oral test; type: in vivo; conditions: application rate 100 ppm; in citrated cattle blood; after 2 days
Experimental: Ctenocephalides felis—Oral Test Solvent: dimethyl sulfoxide To produce a suitable active ingredient formulation, 10 mg of active ingredient are mixed with 0.5 ml of dimethyl sulfoxide. Dilution with citrated cattle blood gives the desired concentration. About 20 unfed adult cat fleas (Ctenocephalides felis) are placed into a chamber which is closed at the top and bottom with gauze. A metal cylinder whose bottom end is closed with parafilm is placed onto the chamber. The cylinder contains the blood/active ingredient formulation, which can be imbibed by the fleas through the parafilm membrane. After 2 days, the kill in % is determined. 100% means that all of the fleas have been killed; 0% means that none of the fleas have been killed.

Phaedon cochleariae = Phaedon cochleariae - spray test; type: in vivo; conditions: application rate 100 g/ha; Chinese cabbage leaf discs; after 7 days
Experimental: Phaedon cochleariae—Spray Test
(§1) To produce a suitable active ingredient formulation, 1 part by weight of active ingredient is dissolved with the specified parts by weight of solvent and made up to the desired concentration with water containing an emulsifier concentration of 1000 ppm. To produce further test concentrations, the formulation is diluted with emulsifier-containing water.
Discs of Chinese cabbage leaves (Brassica pekinensis) are sprayed with an active ingredient formulation of the desired concentration and, after drying, populated with larvae of the mustard beetle (Phaedon cochleariae).
After 7 days, the efficacy in % is determined. 100% means that all the beetle larvae have been killed; 0% means that no beetle larvae have been killed.

Spodoptera frugiperda = Spodoptera frugiperda - spray test; type: in vivo; conditions: application rate 100 g/ha; maize leaf discs; after 7 days
Experimental: Spodoptera frugiperda—Spray Test [table] To produce a suitable active ingredient formulation, 1 part by weight of active ingredient is dissolved with the specified parts by weight of solvent and made up to the desired concentration with water containing an emulsifier concentration of 1000 ppm. To produce further test concentrations, the formulation is diluted with emulsifier-containing water. Leaf discs of maize (Zea mays) are sprayed with an active ingredient formulation of the desired concentration and, after drying, populated with caterpillars of the armyworm (Spodoptera frugiperda). After 7 days, the efficacy in % is determined. 100% means that all the caterpillars have been killed; 0% means that no caterpillar has been killed.

Tetranychus urticae = Tetranychus urticae - spray test, OP-resistant; type: in vivo; conditions: application rate 20 g/ha; bean leaf discs, all stages; after 6 days
Experimental: Tetranychus urticae—Spray Test, OP-Resistant
as §1
Discs of bean leaves (Phaseolus vulgaris) infested with all stages of the greenhouse red spider mite (Tetranychus urticae) are sprayed with an active ingredient formulation of the desired concentration.
After 6 days, the efficacy in % is determined. 100% means that all the spider mites have been killed; 0% means that no spider mites have been killed.

Boophilus microplus = Boophilus microplus - injection test; type: in vivo; conditions: application rate 20 μg/animal; injection into engorged adult female ticks; after 7 days
Experimental: Boophilus microplus—Injection Test Solvent: dimethyl sulfoxide To produce a suitable active ingredient formulation, 10 mg of active ingredient are mixed with 0.5 ml of solvent and the concentrate is diluted to the desired concentration with solvent. 1 μl of the active ingredient solution is injected into the abdomen of 5 engorged adult female cattle ticks (Boophilus microplus). The animals are transferred into dishes and kept in a climate-controlled room. Efficacy is assessed after 7 days by laying of fertile eggs. Eggs which are not visibly fertile are stored in a climate-controlled cabinet until the larvae hatch after about 42 days. An efficacy of 100% means that none of the ticks has laid any fertile eggs; 0% means that all the eggs are fertile.

Musca domestica = Musca domestica test; type: in vivo; conditions: application rate 100 ppm; sponge with sugar solution; after 2 days
Experimental: Musca domestica Test Solvent: dimethyl sulfoxide To produce a suitable active ingredient formulation, 10 mg of active ingredient are mixed with 0.5 ml of dimethyl sulfoxide, and the concentrate is diluted with water to the desired concentration. Vessels containing a sponge treated with sugar solution and the active ingredient formulation of the desired concentration are populated with 10 adult houseflies (Musca domestica). After 2 days, the kill in % is determined. 100% means that all of the flies have been killed; 0% means that none of the flies have been killed.

Row | chromatographic logP [1] | Structure (SMILES) | efficacy (aphids killed) (Myzus persicae [2]; application rate 4 ppm) [%] | efficacy (aphids killed) (Myzus persicae [2]; application rate 20 ppm) [%] | efficacy (fleas dead or moribund) (Ctenocephalides felis [3]) [%] | efficacy (kill of L1 larvae) (Lucilia cuprina) [%] | efficacy (aphids killed) (Myzus persicae [4]) [%] | efficacy (kill of fleas) (Ctenocephalides felis [5]) [%] | efficacy (beetle larvae killed) (Phaedon cochleariae) [%] | efficacy (caterpillars killed) (Spodoptera frugiperda) [%] | efficacy (spider mites killed) (Tetranychus urticae) [%] | efficacy (no laying of fertile eggs) (Boophilus microplus) [%] | efficacy (kill of adult houseflies) (Musca domestica) [%]
1 | 2.26 | CCS(=O)(=O)c1c(-c2nc3cc(C(F)(F)F)ncc3n2C)nn2ccccc12 [Example I-1, 2-(3-Ethylsulfonylpyrazolo[1,5-a]pyridin-2-yl)-3-methyl-6-(trifluoromethyl)imidazo[4,5-c]pyridine] | 100 | 100 | 100 | 100 | 100 | 100 |  |  |  |  | 
2 |  | CCS(=O)(=O)c1c(-c2nc3cc(C(F)(F)F)ncc3n2C)nn2cc(Cl)ccc12 [Example I-5] | 100 |  |  |  |  |  | 100 | 100 |  |  | 
3 | 2.86 | Cn1c(-c2nn3ccccc3c2Br)nc2cc(C(F)(F)F)ncc21 [2-(3-Bromopyrazolo[1,5-a]pyridin-2-yl)-3-methyl-6-(trifluoromethyl)imidazo[4,5-c]pyridine] |  |  |  |  |  |  |  |  |  |  | 
4 | 1.58 | CCS(=O)(=O)c1c(-c2nc3cc(C(F)(F)F)ncc3n2C)nn2cccnc12 [Example I-2, 2-(3-Ethylsulfonylpyrazolo[1,5-a]pyrimidin-2-yl)-3-methyl-6-(trifluoromethyl)imidazo[4,5-c]-pyridine] | 100 | 100 |  |  | 90 |  |  |  | 90 |  | 
5 | 2 | CCS(=O)(=O)c1c(-c2nc3cc(C(F)(F)F)ncc3n2C)nn2c(C)cc(C)nc12 [Example I-3, 3-Ethylsulfonyl-5,7-dimethyl-2-[3-methyl-6-(trifluoromethyl)imidazo[4,5-c]pyridin-2-yl]-pyrazolo[1,5-a]pyrimidine] | 100 | 100 |  | 97 | 100 | 100 |  |  |  | 100 | 
6 |  | CCS(=O)(=O)c1c(-c2nc3cc(C(F)(F)F)cnc3n2C)nn2ccccc12 [Example I-4] | 100 |  | 100 | 100 | 90 |  | 100 | 100 |  |  | 90
7 |  | CCS(=O)(=O)c1c(-c2nc3cc(C(F)(F)F)cnc3n2C)nn2cc(Cl)ccc12 [Example I-6] | 100 |  |  |  | 90 |  | 100 | 100 |  |  | 
